Data on six compounds can be found in US20180273571A1, “CONCISE SYNTHESIS OF UREA DERIVATIVES OF AMPHOTERICIN B” (THE BOARD OF TRUSTEES OF THE UNIVERSITY OF ILLINOIS, priority 2015, published 2018).

The test system of series [1] is human erythrocytes (red blood cells). Put plainly: Hemolysis assay of human erythrocytes (EH90). The series is classed as cell-based. The procedure:
(§1) With efficient access to this novel AmB chemotype, ureas AmBAU, AmBMU, and AmBCU were compared to AmB and a range of previously reported AmB derivatives in an in vitro antifungal and human cell toxicity screen. Yeast toxicity was measured with broth microdilution assays (MIC) against Saccharomyces cerevisiae. Human cell toxicity was studied by determining the amount of compound required to cause 90% hemolysis of human erythrocytes (EH90). […] Methyl esterification (AmBME) retains antifungal activity at 0.25 μM against S. cerevisiae, while decreasing hemolysis concentration to one third that seen with AmB. […] Hemolysis activity remained similar to AmBME and C41MeAmB. Bis-amino alkylated amide derivative AmBNR2 was previously shown to moderately improve the therapeutic index.
(§2) Each derivative proposed herein is tested for biological activity against both yeast and human cells to determine its therapeutic index. A broth microdilution experiment determines the MIC (minimum inhibitory concentration) of each derivative against S. cerevisiae and the clinically relevant C. albicans, thereby establishing the antifungal activity of each novel derivative. To test for toxicity against human cells, each compound is exposed to a hemolysis assay against red blood cells which determines the concentration required to cause 90% lysis of human red blood cells (EH90). Additionally, each compound is exposed to human primary renal tubule cells to determine the toxicity of each compound against kidney cells. These assays when compared against the known values of AmB against the same cell lines determine the improvement in therapeutic index of each compound.

Another series deals with Saccharomyces cerevisiae. Put plainly: Broth microdilution assay (MIC) against Saccharomyces cerevisiae. The series is classed as cell-based. As to conditions: for MIC: broth microdilution, read-out: MIC S. cerevisiae. As for the experimental part: as §1, §2
A general note: In broth dilution the organism is exposed to a series of concentrations in liquid medium.

The nature of series [2]: Acute toxicity, single intravenous administration to healthy mice, lethality. The series is classed as in vivo. As to conditions: single intravenous 4 mg/kg. The procedure:
FIG. 6 is a graph depicting lethality in healthy mice of single intravenous administration in the doses indicated of AmB, AmBMU, or AmBAU.
In a separate set of experiments, acute toxicity was evaluated by single intravenous administration of 1, 2, 4, 8, 16, 32, or 64 mg/kg AmB or its derivatives to healthy mice, followed by monitoring for lethality. […] AmBAU was drastically less toxic with >50% lethality not being reached until the 64 mg/kg dosage group.

The subject of the next series is Candida albicans. Put plainly: Broth microdilution MIC against C. albicans. The series is classed as cell-based. As for the experimental part: Urea derivatives AmBAU, AmBMU, and AmBCU maintain potent antifungal activity ranging from 0.125 μM to 3 μM against S. cerevisiae. […] AmBCU required 324 μM to cause 90% hemolysis in red blood cells, more than 30× required by AmB. Encouraged by this initial therapeutic index screen the urea series was further tested against the clinically relevant fungal cell line Candida albicans. C. albicans is the most common human fungal infection. AmB inhibits yeast grown of C. albicans at 0.25 μM. Similar to the trend seen with S. cerevisiae, the potency of the urea derivatives increased with increasing amount of cationic character. AmBAU, AmBMU, and AmBCU require 0.25, 0.5, and 1 μM respectively (Table 2).
Each derivative proposed herein is tested for biological activity against both yeast and human cells to determine its therapeutic index. A broth microdilution experiment determines the MIC (minimum inhibitory concentration) of each derivative against S. cerevisiae and the clinically relevant C. albicans, thereby establishing the antifungal activity of each novel derivative. To test for toxicity against human cells, each compound is exposed to a hemolysis assay against red blood cells which determines the concentration required to cause 90% lysis of human red blood cells (EH90). […]

The conditions of series [3]: Wilcock et al., J Am Chem Soc 135:8488 (2013); cited from earlier work.
A further series concerns human cells. As to conditions: in vitro studies, previously reported; cited from earlier work.
The conditions of series [4]: Wilcock et al., J Am Chem Soc 135:8488 (2013); cited from earlier work. This is another data set of the same source.
For the next series, the system named is yeast. As to conditions: in vitro studies, previously reported; cited from earlier work.

For orientation: MIC means the smallest concentration in the dilution series that meets the test's criterion for growth inhibition.

Values after ≈ are worked out from the molar mass of the structure shown. Read-outs that look alike come from different tables or passages of the source.

Consider `CC(C)/C=C/[C@H](O)CC1O[C@](O)(C[C@@H](O)C(C)C)C[C@H](O)[C@H]1C(=O)O` (stereo partly shown) [AmdeB], for which the “cell-killing activity in human cell assay” value in series [1] is recorded as “completely abolishes cell-killing activity”. Moreover, in series [1] (human), the “EH90 red blood cells” value is above 500 µM. Also, in the series with Saccharomyces cerevisiae (Saccharomyces cerevisiae), the MIC is above 500 µM. Further, in the series with Saccharomyces cerevisiae (in words), the “cell-killing activity in yeast assay” value is recorded as “completely abolishes cell-killing activity”.

For the compound `COC(=O)[C@H]1C(C[C@H](/C=C/C(C)C)OC2OC(C)C(O)C(N)C2O)O[C@](O)(C[C@@H](O)C(C)C)C[C@@H]1O` (stereo partly shown) [AmBME], the “hemolysis concentration relative to that seen with AmB” value in series [1] is listed as “one third”. Besides, the “EH90 red blood cells” value in series [1] (human) stood at 30.67 ± 5.38 µM. For the same compound, the MIC in the series on Saccharomyces cerevisiae (Saccharomyces cerevisiae) is 0.25 µM (≈ 0.13 µg/mL).

As to amphotericin B [AmB], the “EH90 red blood cells” value in series [1] (amount of compound required to cause 90% hemolysis of human erythrocytes) turned out to be 10.37 ± 1.17 µM; in series [1] (amount of compound required to cause 90% hemolysis of human erythrocytes, listed as Amphotericin B) it was 10.4 µM. Moreover, in series [2], the lethality result was “died within seconds”. For the same compound, in the series with Candida albicans, the “MIC C. albicans” value stood at 0.25 µM. Further, the MIC in the series on Saccharomyces cerevisiae is 0.5 µM.

As to `CC(C)/C=C/[C@@H](CC1O[C@](O)(C[C@@H](O)C(C)C)C[C@H](O)[C@H]1C(=O)NCCN)OC1OC(C)C(O)C(N)C1O` (stereo partly shown) [AmBAA], the “EH90 red blood cells” value in series [1] (human) stood at 33.96 ± 8.85 µM. Also, in the series on Saccharomyces cerevisiae (Saccharomyces cerevisiae), the MIC turned out to be 0.03 µM (≈ 0.0164 µg/mL).

In the case of `CC(C)/C=C/[C@@H](CC1O[C@](O)(C[C@@H](O)C(C)C)C[C@H](O)[C@H]1C(=O)NCCn1cncn1)OC1OC(C)C(O)C(N(CCCN)CCCN)C1O` (stereo partly shown) [AmBNR2], the MIC with Saccharomyces cerevisiae (Saccharomyces cerevisiae) is 0.25 µM (≈ 0.178 µg/mL).

With `CC1C=CC=CC=CC=CC=CC=CC=CC(OC2CC(N)C(O)C(C)O2)CC2OC(O)(CC(O)CC(O)C(O)CCC(O)CC(O)CC(=O)OC(C)C(C)C1O)CC(O)C2C(=O)O` (stereo not shown) [C2′deOAmB], in series [3], the ergosterol-binding ability entry is “retains ergosterol-binding ability”. In addition, the “toxicity to human cells” value in the series on human cells is reported as “not human cells”. The binding to cholesterol result in series [4] is recorded as “shows no binding to cholesterol”. For the same compound, the toxicity to yeast entry with yeast is “toxic to yeast”.
